Values after ≈ are worked out from the molar mass of the structure shown.
What was measured:
Assay type in all cases: cell-based
[1] = system: Streptococcus pneumoniae ATCC6303; experiment: MIC, microbroth dilution; conditions: Streptococcus pneumoniae ATCC6303, rifS; read-out: Antimicrobial activity (MIC)
[2] = system: Staphylococcus aureus ATCC29213; experiment: MIC, microbroth dilution; conditions: Staphylococcus aureus ATCC29213, rifS; read-out: Antimicrobial activity (MIC)
[3] = system: Mycobacterium smegmatis ATCC700084; experiment: MIC, microbroth dilution; conditions: Mycolicibacterium smegmatis; Mycobacterium smegmatis ATCC700084, rifS; read-out: Antimicrobial activity (MIC)
[4] = system: Enterococcus faecalis ATCC29212; experiment: MIC, microbroth dilution; conditions: Enterococcus faecalis ATCC29212, rifS; read-out: Antimicrobial activity (MIC)
[5] = system: Escherichia coli ATCC25922; experiment: MIC, microbroth dilution; conditions: Escherichia coli ATCC25922, rifS; read-out: Antimicrobial activity (MIC)
[6] = system: Staphylococcus aureus EN1252a gyrA^S84L grlA^S80F; experiment: microbe, parasite or virus in culture; conditions: Staphylococcus aureus EN1252a gyrA^S84L grlA^S80F, cipR; read-out: Antimicrobial activity (MIC)
Protocol: (§1) Representative compounds were assayed for antimicrobial activity as follows: Minimum Inhibitory Concentrations (“MICs”) were determined by the microbroth dilution method as per NCCLS guidelines (National Committee for Clinical Laboratory Standards. 2000. Methods for dilution antimicrobial susceptibility tests for bacteria that grow aerobically, 5th ed. M7-A5. National Committee for Clinical Laboratory Standards, Wayne, Pa.), except that all growth incubations were conducted at 37° C. Bacterial cultures were tested in the following bacteriological media: S. aureus, S. epidermidis, and E. coli in Cation-Adjusted Mueller-Hinton Broth, S. pneumoniae in THY Broth supplemented with 1 mg/mL catalase under 5% CO2 atmosphere, S. pyogenes in THY Broth, E. faecalis in BHI Broth, H. influenzae in BHI Broth supplemented with 0.75 μL of 1 mg/mL NAD and 150 μL of 1 mg/ml hematin per 5 mL, and M. smegmatis in Middlebrook Broth plus ADC Enrichment.
(§2) S. aureus ATCC 29213 RpoB^H418Y is a rifampin-resistant strain with a mutation in the RpoB gene of RNA polymerase. […] S. aureus EN1252a gyrA^S84L grlA^S80F is a quinolone-resistant strain due to double gene mutations of DNA gyrase and topoisomerase IV.

[7] = system: Staphylococcus aureus ATCC29213 rpoB^D417Y; experiment: microbe, parasite or virus in culture; conditions: Staphylococcus aureus ATCC29213 rpoB^D417Y, rifR; read-out: Antimicrobial activity (MIC)
Protocol: as §1, §2

[8] = system: Staphylococcus aureus ATCC29213 rpoB^H418Y; experiment: microbe, parasite or virus in culture; conditions: Staphylococcus aureus ATCC29213 rpoB^H418Y, rifR; read-out: Antimicrobial activity (MIC)
Protocol: as §1, §2

[9] = system: Haemophilus influenzae ATCC10211; experiment: MIC, microbroth dilution; conditions: Haemophilus influenzae ATCC10211, rifS; read-out: Antimicrobial activity (MIC)
[10] = system: Staphylococcus epidermidis ATCC12228; experiment: MIC, microbroth dilution; conditions: Staphylococcus epidermidis ATCC12228, rifS; read-out: Antimicrobial activity (MIC)
[11] = system: Streptococcus pyogenes ATCC19615; experiment: MIC, microbroth dilution; conditions: Streptococcus pyogenes ATCC19615, rifS; read-out: Antimicrobial activity (MIC)

| SMILES | MIC [1] [µg/mL] | MIC [2] [µg/mL] | MIC [3] [µg/mL] | MIC [4] [µg/mL] | MIC [5] [µg/mL] | MIC [6] [µg/mL] | MIC [7] [µg/mL] | MIC [8] [µg/mL] | MIC [9] [µg/mL] | MIC [10] [µg/mL] | MIC [11] [µg/mL] |
| --- | --- | --- | --- | --- | --- | --- | --- | --- | --- | --- | --- |
| CO[C@H]1/C=C/O[C@@]2(C)Oc3c(C)c(O)c4c(c3/C2=N/OCCN2CCN(c3cccc(C(F)(F)F)c3)CC2)C(=O)C=C(NC(=O)/C(C)=C\C=C\[C@H](C)[C@H](O)[C@@H](C)[C@@H](O)[C@@H](C)[C@H](OC(C)=O)[C@@H]1C)C4=O [Example 18, 11-Deoxy-11-{2-[4-(3-trifluoromethyl-phenyl)-piperazin-1-yl]ethoxyimino}rifamycin S] | 0.0002 to 0.125 (≈ 0.000207 to 0.129 µM) | 0.004 to 0.5 (≈ 0.00414 to 0.517 µM) | 0.5 to 64 (≈ 0.517 to 66.2 µM) | 2 to 32 (≈ 2.07 to 33.1 µM) | 0.125 to 8 (≈ 0.129 to 8.27 µM) | 0.004 to 0.5 (≈ 0.00414 to 0.517 µM) | 0.25 to 32 (≈ 0.259 to 33.1 µM) | 0.125 to 16 (≈ 0.129 to 16.5 µM) | 0.03 to 2 (≈ 0.031 to 2.07 µM) | 0.0005 to 0.063 (≈ 0.000517 to 0.0651 µM) | 0.0005 to 0.063 (≈ 0.000517 to 0.0651 µM) |
| CO[C@H]1/C=C/O[C@@]2(C)Oc3c(C)c(O)c4c(c3/C2=N/OCCN2CCN(S(=O)(=O)c3cccc5ccncc35)CC2)C(=O)C=C(NC(=O)/C(C)=C\C=C\[C@H](C)[C@H](O)[C@@H](C)[C@@H](O)[C@@H](C)[C@H](OC(C)=O)[C@@H]1C)C4=O [Example 19, 11-Deoxy-11-{2-[4-(isoquinoline-8-sulfonyl)-piperazin-1-yl]-ethoxyimino}rifamycin S] | 0.0002 to 0.125 (≈ 0.000197 to 0.123 µM) | 0.004 to 0.5 (≈ 0.00394 to 0.493 µM) | 0.5 to 64 (≈ 0.493 to 63.1 µM) | 2 to 32 (≈ 1.97 to 31.6 µM) | 0.125 to 8 (≈ 0.123 to 7.89 µM) | 0.004 to 0.5 (≈ 0.00394 to 0.493 µM) | 0.25 to 32 (≈ 0.247 to 31.6 µM) | 0.125 to 16 (≈ 0.123 to 15.8 µM) | 0.03 to 2 (≈ 0.0296 to 1.97 µM) | 0.0005 to 0.063 (≈ 0.000493 to 0.0621 µM) | 0.0005 to 0.063 (≈ 0.000493 to 0.0621 µM) |
| CO[C@H]1/C=C/O[C@@]2(C)Oc3c(C)c(O)c4c(c3/C2=N/OCCN(CCO)CCO)C(=O)C=C(NC(=O)/C(C)=C\C=C\[C@H](C)[C@H](O)[C@@H](C)[C@@H](O)[C@@H](C)[C@H](OC(C)=O)[C@@H]1C)C4=O [Example 20, 11-Deoxy-11-{2-[bis-(2-hydroxy-ethyl)-amino]ethoxyimino}rifamycin S] | 0.0002 to 0.125 (≈ 0.000238 to 0.148 µM) | 0.004 to 0.5 (≈ 0.00475 to 0.594 µM) | 0.5 to 64 (≈ 0.594 to 76 µM) | 2 to 32 (≈ 2.38 to 38 µM) | 0.125 to 8 (≈ 0.148 to 9.5 µM) | 0.004 to 0.5 (≈ 0.00475 to 0.594 µM) | 0.25 to 32 (≈ 0.297 to 38 µM) | 0.125 to 16 (≈ 0.148 to 19 µM) | 0.03 to 2 (≈ 0.0356 to 2.38 µM) | 0.0005 to 0.063 (≈ 0.000594 to 0.0748 µM) | 0.0005 to 0.063 (≈ 0.000594 to 0.0748 µM) |
| CO[C@H]1/C=C/O[C@@]2(C)Oc3c(C)c(O)c4c(c3/C2=N/OCCN2CC(C)NC(C)C2)C(=O)C=C(NC(=O)/C(C)=C\C=C\[C@H](C)[C@H](O)[C@@H](C)[C@@H](O)[C@@H](C)[C@H](OC(C)=O)[C@@H]1C)C4=O (stereo partly drawn) [Example 21, 11-Deoxy-11-[2-(3,5-dimethyl-piperazin-1-yl)ethoxyimino]rifamycin S] | 0.0002 to 0.125 (≈ 0.000235 to 0.147 µM) | 0.004 to 0.5 (≈ 0.0047 to 0.588 µM) | 0.5 to 64 (≈ 0.588 to 75.2 µM) | 2 to 32 (≈ 2.35 to 37.6 µM) | 0.125 to 8 (≈ 0.147 to 9.4 µM) | 0.004 to 0.5 (≈ 0.0047 to 0.588 µM) | 0.25 to 32 (≈ 0.294 to 37.6 µM) | 0.125 to 16 (≈ 0.147 to 18.8 µM) | 0.03 to 2 (≈ 0.0353 to 2.35 µM) | 0.0005 to 0.063 (≈ 0.000588 to 0.074 µM) | 0.0005 to 0.063 (≈ 0.000588 to 0.074 µM) |
| CO[C@H]1/C=C/O[C@@]2(C)Oc3c(C)c(O)c4c(c3/C2=N/OCCN2CCN(C)CC2)C(=O)C=C(NC(=O)/C(C)=C\C=C\[C@H](C)[C@H](O)[C@@H](C)[C@@H](O)[C@@H](C)[C@H](OC(C)=O)[C@@H]1C)C4=O [Example 22, 11-Deoxy-11-[2-(4-methylpiperazin-1-yl)ethoxyimino]rifamycin S] | 0.0002 to 0.125 (≈ 0.000239 to 0.149 µM) | 0.004 to 0.5 (≈ 0.00478 to 0.597 µM) | 0.5 to 64 (≈ 0.597 to 76.5 µM) | 2 to 32 (≈ 2.39 to 38.2 µM) | 0.125 to 8 (≈ 0.149 to 9.56 µM) | 0.004 to 0.5 (≈ 0.00478 to 0.597 µM) | 0.25 to 32 (≈ 0.299 to 38.2 µM) | 0.125 to 16 (≈ 0.149 to 19.1 µM) | 0.03 to 2 (≈ 0.0358 to 2.39 µM) | 0.0005 to 0.063 (≈ 0.000597 to 0.0753 µM) | 0.0005 to 0.063 (≈ 0.000597 to 0.0753 µM) |
| CO[C@H]1/C=C/O[C@@]2(C)Oc3c(C)c(O)c4c(c3/C2=N/OCCN2CCC(O)CC2)C(=O)C=C(NC(=O)/C(C)=C\C=C\[C@H](C)[C@H](O)[C@@H](C)[C@@H](O)[C@@H](C)[C@H](OC(C)=O)[C@@H]1C)C4=O [Example 23, 11-Deoxy-11-[2-(4-hydroxypiperadin-1-yl)ethoxyimino]rifamycin S] | 0.0002 to 0.125 (≈ 0.000239 to 0.149 µM) | 0.004 to 0.5 (≈ 0.00477 to 0.597 µM) | 0.5 to 64 (≈ 0.597 to 76.4 µM) | 2 to 32 (≈ 2.39 to 38.2 µM) | 0.125 to 8 (≈ 0.149 to 9.55 µM) | 0.004 to 0.5 (≈ 0.00477 to 0.597 µM) | 0.25 to 32 (≈ 0.298 to 38.2 µM) | 0.125 to 16 (≈ 0.149 to 19.1 µM) | 0.03 to 2 (≈ 0.0358 to 2.39 µM) | 0.0005 to 0.063 (≈ 0.000597 to 0.0752 µM) | 0.0005 to 0.063 (≈ 0.000597 to 0.0752 µM) |

Source: patent publication US7256187B2, “Rifamycin C-11 oxime derivatives effective against drug-resistant microbes” (Cumbre Pharmaceuticals Inc., priority 2004, dated 2007)
